Measured values: publication PMC7897442, “Mobility shift-based electrophoresis coupled with fluorescent detection enables real-time enzyme analysis of carbohydrate sulfatase activity” (Biochemical Journal, 2021)

Key:
[1] = Stability of labelled substrate in CE assay without enzyme; assay type: physicochemical; settings: absence of enzyme, CE assay conditions
Description: 6S-N-acetyl-D-glucosamine was labelled at its reducing end with BODIPY which has a maximal emission absorbance of ∼503 nm, which can be detected by the EZ Reader II platform via LED-induced fluorescence. Non-radioactive microfluidic mobility shift carbohydrate sulfation assays were optimised in solution with a 12-sipper chip coated with CR8 reagent and performed using a PerkinElmer EZ Reader II system employing EDTA-based separation buffer and real-time kinetic evaluation of substrate desulfation. Pressure and voltage settings were adjusted manually (1.8 psi, upstream voltage: 2250 V, downstream voltage: 500 V) to afford optimal separation in the reaction mixture of the sulfated substrate and unsulfated glycan product, with a sample (sip) time of 0.2 s, and total assay times appropriate for the experiment. Individual de-sulfation assays were carried out at 28°C and were pre-assembled in a 384-well plate in a volume of 80 μl in the presence of substrate concentrations between 0.5 and 20 μM with 100 mM Bis-Tris-Propane (BTP) or Tris, dependent on the pH required, and 150 mM NaCl, 0.02% (v/v) Brij-35 and 5 mM CaCl2. The amount of de-sulfation was directly calculated in real-time using EZ Reader II software by measuring the sulfated carbohydrate : unsulfated carbohydrate ratio at each time point during the assay. […]

[2] = design: method as in PMID 36876452; settings: pH range; cited from earlier work

Row | Structure (SMILES) | amount of unsulfated substrate over the course of the reaction (stability) [1] | stability over a variety of pH values [2]
1 | CC(=O)N[C@@H]1[C@@H](O)[C@H](O)[C@@H](COS(=O)(=O)O)O[C@H]1NNC(=O)CCC1=[N+]2C(=Cc3c(C)cc(C)n3[B-]2(F)F)C=C1 [6S-GlcNAc-BODIPY] | remained constant | –
2 | Cc1cc(C)n2c1C=C1C=CC(CCC(=O)NN)=[N+]1[B-]2(F)F [BODIPY-FL hydrazide, 4,4-difluoro-5,7-dimethyl-4-bora-3a,4a-diaza-s-indacene-3-propionic acid, hydrazide] | – | 3–12
